From PMC11213733, “Computational approaches identify a transcriptomic fingerprint of drug-induced structural cardiotoxicity” (Cell Biology and Toxicology, 2024)
Where a name gives a salt, the structure may show the parent alone.

Legend:
[1] = test system: cardiac microtissues; experiment: Transcriptomic profiling (mRNA-seq) and DESeq2 differential gene expression analysis in cardiac microtissues; conditions: absolute log2(Fold-Change) > 1, FDR p ≤ 0.05; for number of significant differentially expressed genes, 6hr high / number of significant differentially expressed genes, 48hr high / number of significant differentially expressed genes, 72hr high: high concentration; for number of significant differentially expressed genes, 6hr low / number of significant differentially expressed genes, 48hr low / number of significant differentially expressed genes, 72hr low: low concentration
[2] = ref FDA label, cited from earlier work; for Structural cardiotoxin?: FDA label references heart failure or a decrease in left ventricular ejection fraction; for Functional cardiotoxin?: compound annotation
[3] = test system: cardiac microtissues; experiment: Ingenuity Pathway Analysis over-representation of differentially expressed genes (activation Z-score); type: cell-based, human; conditions: 48hr high; Group 1

Structure (SMILES): Nc1nc2c(ncn2COCCO)c(=O)[nH]1 [Acyclovir]
- number of significant differentially expressed genes, 6hr high [1]: 3
- number of significant differentially expressed genes, 6hr low [1]: 4
- number of significant differentially expressed genes, 48hr high [1]: 0
- number of significant differentially expressed genes, 48hr low [1]: 0
- number of significant differentially expressed genes, 72hr high [1]: 0
- number of significant differentially expressed genes, 72hr low [1]: 0

Structure (SMILES): CN(C)C/C=C/C(=O)Nc1cc2c(Nc3ccc(F)c(Cl)c3)ncnc2cc1O[C@H]1CCOC1 [Afatinib]
- Structural cardiotoxin? [2]: N
- Functional cardiotoxin? [2]: N

Structure (SMILES): CC1(C)S[C@@H]2[C@H](NC(=O)[C@H](N)c3ccc(O)cc3)C(=O)N2[C@H]1C(=O)O [Amoxacillin]
- Structural cardiotoxin? [2]: N
- Functional cardiotoxin? [2]: N

Structure (SMILES): CNC(=O)c1ccccc1Sc1ccc2c(/C=C/c3ccccn3)n[nH]c2c1 [Axitinib]
- Structural cardiotoxin? [2]: N
- Functional cardiotoxin? [2]: Y

Structure (SMILES): O=C1CC2(CCCC2)CC(=O)N1CCCCN1CCN(c2ncccn2)CC1 [Buspirone HCl]
- Structural cardiotoxin? [2]: N
- Functional cardiotoxin? [2]: N
- number of significant differentially expressed genes, 6hr high [1]: 42
- number of significant differentially expressed genes, 6hr low [1]: 10
- number of significant differentially expressed genes, 48hr high [1]: 14
- number of significant differentially expressed genes, 48hr low [1]: 6
- number of significant differentially expressed genes, 72hr high [1]: 8
- number of significant differentially expressed genes, 72hr low [1]: 4

Structure (SMILES): Cc1ccc(-c2cc(C(F)(F)F)nn2-c2ccc(S(N)(=O)=O)cc2)cc1 [Celecoxib]
- Structural cardiotoxin? [2]: Y
- Functional cardiotoxin? [2]: Y

Structure (SMILES): Cc1cc(Nc2ncc(Cl)c(Nc3ccccc3S(=O)(=O)C(C)C)n2)c(OC(C)C)cc1C1CCNCC1 [Ceritinib]
- Structural cardiotoxin? [2]: N
- Functional cardiotoxin? [2]: Y

Structure (SMILES): CN1CCN(C2=Nc3cc(Cl)ccc3Nc3ccccc32)CC1 [Clozapine]
- Functional cardiotoxin? [2]: Y
- number of significant differentially expressed genes, 6hr high [1]: 16
- number of significant differentially expressed genes, 6hr low [1]: 2
- number of significant differentially expressed genes, 48hr high [1]: 25
- number of significant differentially expressed genes, 48hr low [1]: 4
- number of significant differentially expressed genes, 72hr high [1]: 60
- number of significant differentially expressed genes, 72hr low [1]: 1

Structure (SMILES): C[C@@H](Oc1cc(-c2cnn(C3CCNCC3)c2)cnc1N)c1c(Cl)ccc(F)c1Cl [Crizotinib]
- Structural cardiotoxin? [2]: N
- Functional cardiotoxin? [2]: Y

Structure (SMILES): O=P1(N(CCCl)CCCl)NCCCO1 (stereo not shown) [Cyclophosphamide]
- Structural cardiotoxin? [2]: Y
- Functional cardiotoxin? [2]: Y

Structure (SMILES): Nc1ccc(S(=O)(=O)c2ccc(N)cc2)cc1 [Dapsone]
- Structural cardiotoxin? [2]: N
- Functional cardiotoxin? [2]: N

Structure (SMILES): COc1cccc2c1C(=O)c1c(O)c3c(c(O)c1C2=O)C[C@@](O)(C(C)=O)C[C@@H]3O[C@H]1C[C@H](N)[C@H](O)[C@H](C)O1 [Daunorubicin]
- Structural cardiotoxin? [2]: Y
- Functional cardiotoxin? [2]: Y

Structure (SMILES): C[C@@H]1C[C@H]2[C@@H]3CCC4=CC(=O)C=C[C@]4(C)[C@@]3(F)[C@@H](O)C[C@]2(C)[C@@]1(O)C(=O)CO [Dexamethasone]
- Structural cardiotoxin? [2]: N
- Functional cardiotoxin? [2]: N

Structure (SMILES): COc1cccc2c1C(=O)c1c(O)c3c(c(O)c1C2=O)C[C@@](O)(C(=O)CO)C[C@@H]3O[C@H]1C[C@H](N)[C@@H](O)[C@H](C)O1 [Epirubicin]
- Structural cardiotoxin? [2]: Y
- Functional cardiotoxin? [2]: Y

Structure (SMILES): COC(=O)[C@@H]1CC2=CC(=O)CC[C@]2(C)[C@@]23O[C@@H]2C[C@@]2(C)[C@@H](CC[C@@]24CCC(=O)O4)[C@H]13 [Eplerenone]
- Structural cardiotoxin? [2]: N
- Functional cardiotoxin? [2]: Y

Structure (SMILES): C#Cc1cccc(Nc2ncnc3cc(OCCOC)c(OCCOC)cc23)c1 [Erlotinib]
- Structural cardiotoxin? [2]: N
- Functional cardiotoxin? [2]: Y
- activation Z-score: Cardiac Hypertrophy Signaling [3]: -2.236
- activation Z-score: Cell Cycle Control of Chromosomal Replication [3]: -3.742
- activation Z-score: Cell Cycle Regulation by BTG Family Proteins [3]: -2
- activation Z-score: Cyclins and Cell Cycle Regulation [3]: -2.111
- activation Z-score: D-myo-inositol-5-phosphate Metabolism [3]: -2.449
- activation Z-score: DNA Methylation and Transcriptional Repression Signaling [3]: -2.646
- activation Z-score: Estrogen-mediated S-phase Entry [3]: -2.121
- activation Z-score: Factors Promoting Cardiogenesis in Vertebrates [3]: -0.816
- activation Z-score: G-Protein Coupled Receptor Signaling [3]: -2.357
- activation Z-score: GP6 Signaling Pathway [3]: -1.633
- activation Z-score: Glioma Invasiveness Signaling [3]: -2
- activation Z-score: HIF1Î± Signaling [3]: -2.121
- activation Z-score: HMGB1 Signaling [3]: -2.236
- activation Z-score: Hepatic Fibrosis Signaling Pathway [3]: -2.138
- activation Z-score: ILK Signaling [3]: -1.134
- activation Z-score: Insulin Secretion Signaling Pathway [3]: -2.121
- activation Z-score: Integrin Signaling [3]: -2.449
- activation Z-score: Kinetochore Metaphase Signaling Pathway [3]: -3.402
- activation Z-score: Mitotic Roles of Polo-Like Kinase [3]: -2.309
- activation Z-score: Protein Kinase A Signaling [3]: -1.155
- activation Z-score: Pyridoxal 5'-phosphate Salvage Pathway [3]: -2.646
- activation Z-score: RHOGDI Signaling [3]: 1.89
- activation Z-score: Regulation Of The Epithelial Mesenchymal Transition By Growth Factors Pathway [3]: -2.449
- activation Z-score: Role of NFAT in Cardiac Hypertrophy [3]: -2
- activation Z-score: Salvage Pathways of Pyrimidine Ribonucleotides [3]: -2.828
- activation Z-score: Senescence Pathway [3]: 0.728
- activation Z-score: Sphingosine-1-phosphate Signaling [3]: -2
- activation Z-score: Superpathway of Inositol Phosphate Compounds [3]: -2.449
- activation Z-score: Thrombin Signaling [3]: -2.236
- activation Z-score: White Adipose Tissue Browning Pathway [3]: -1.633
- activation Z-score: Wound Healing Signaling Pathway [3]: -2.111
- activation Z-score: cAMP-mediated signaling [3]: -1.633
- activation Z-score: tRNA Charging [3]: 2.646
- number of significant differentially expressed genes, 6hr high [1]: 56
- number of significant differentially expressed genes, 6hr low [1]: 39
- number of significant differentially expressed genes, 48hr high [1]: 634
- number of significant differentially expressed genes, 48hr low [1]: 152
- number of significant differentially expressed genes, 72hr high [1]: 283
- number of significant differentially expressed genes, 72hr low [1]: 78

Structure (SMILES): O=c1[nH]cc(F)c(=O)[nH]1 [Fluorouracil]
- Structural cardiotoxin? [2]: Y
- Functional cardiotoxin? [2]: Y
- activation Z-score: BER (Base Excision Repair) Pathway [3]: -2.236
- activation Z-score: Cell Cycle Control of Chromosomal Replication [3]: -4.359
- activation Z-score: Cell Cycle Regulation by BTG Family Proteins [3]: -1.342
- activation Z-score: Cyclins and Cell Cycle Regulation [3]: -2.714
- activation Z-score: DNA Methylation and Transcriptional Repression Signaling [3]: -1.414
- activation Z-score: Estrogen-mediated S-phase Entry [3]: -2.333
- activation Z-score: G-Protein Coupled Receptor Signaling [3]: -1
- activation Z-score: Kinetochore Metaphase Signaling Pathway [3]: -3.772
- activation Z-score: Mismatch Repair in Eukaryotes [3]: -2
- activation Z-score: Mitotic Roles of Polo-Like Kinase [3]: -2.309
- activation Z-score: NER (Nucleotide Excision Repair, Enhanced Pathway) [3]: -1.414
- activation Z-score: Protein Kinase A Signaling [3]: 2
- activation Z-score: Pyridoxal 5'-phosphate Salvage Pathway [3]: -1.89
- activation Z-score: RHOGDI Signaling [3]: 2
- activation Z-score: Salvage Pathways of Pyrimidine Ribonucleotides [3]: -2.121
- activation Z-score: Senescence Pathway [3]: 2.324
- activation Z-score: Superpathway of Inositol Phosphate Compounds [3]: -0.447
- number of significant differentially expressed genes, 6hr high [1]: 0
- number of significant differentially expressed genes, 6hr low [1]: 0
- number of significant differentially expressed genes, 48hr high [1]: 401
- number of significant differentially expressed genes, 48hr low [1]: 1
- number of significant differentially expressed genes, 72hr high [1]: 366
- number of significant differentially expressed genes, 72hr low [1]: 200

Structure (SMILES): Cc1ccc(C)c(OCCCC(C)(C)C(=O)O)c1 [Gemfibrozil]
- Structural cardiotoxin? [2]: N
- Functional cardiotoxin? [2]: N

Structure (SMILES): CC(C)NCC(O)c1ccc(O)c(O)c1 (stereo not shown) [Isoproterenol HCl]
- Structural cardiotoxin? [2]: Y
- Functional cardiotoxin? [2]: Y

Structure (SMILES): CCn1cc(C(=O)O)c(=O)c2cc(F)c(N3CCNC(C)C3)c(F)c21 (stereo not shown) [Lomefloxacin]
- Structural cardiotoxin? [2]: Y
- Functional cardiotoxin? [2]: Y

Structure (SMILES): COC(=O)Nc1nc2ccc(C(=O)c3ccccc3)cc2[nH]1 [Mebendazole]
- number of significant differentially expressed genes, 6hr high [1]: 195
- number of significant differentially expressed genes, 6hr low [1]: 27
- number of significant differentially expressed genes, 48hr high [1]: 407
- number of significant differentially expressed genes, 48hr low [1]: 79
- number of significant differentially expressed genes, 72hr high [1]: 536
- number of significant differentially expressed genes, 72hr low [1]: 192

Structure (SMILES): CN(C)CCN(Cc1cccs1)c1ccccn1 [Methapyrilene]
- Structural cardiotoxin? [2]: N

Structure (SMILES): O=C1C[C@@H](c2ccc(O)cc2)Oc2cc(O)cc(O)c21 [Narigenin, Naringenin]
- Structural cardiotoxin? [2]: N
- Functional cardiotoxin? [2]: N

Structure (SMILES): Cc1ccc(Nc2nccc(N(C)c3ccc4c(C)n(C)nc4c3)n2)cc1S(N)(=O)=O [Pazopanib]
- Structural cardiotoxin? [2]: N
- Functional cardiotoxin? [2]: Y

Structure (SMILES): CCc1ccc(CCOc2ccc(CC3SC(=O)NC3=O)cc2)nc1 (stereo not shown) [Pioglitazone]
- Structural cardiotoxin? [2]: Y
- Functional cardiotoxin? [2]: Y

Structure (SMILES): Cc1ccc(C(=O)Nc2ccc(CN3CCN(C)CC3)c(C(F)(F)F)c2)cc1C#Cc1cnc2cccnn12 [Ponatinib]
- Structural cardiotoxin? [2]: Y
- Functional cardiotoxin? [2]: Y

Structure (SMILES): O=C(C1CCCCC1)N1CC(=O)N2CCc3ccccc3C2C1 (stereo not shown) [Praziquantel]
- Structural cardiotoxin? [2]: N
- Functional cardiotoxin? [2]: N

Structure (SMILES): CS(=O)(=O)c1ccc(C2=C(c3ccccc3)C(=O)OC2)cc1 [Rofecoxib]
- Structural cardiotoxin? [2]: Y
- Functional cardiotoxin? [2]: Y

Structure (SMILES): N#CC[C@H](C1CCCC1)n1cc(-c2ncnc3[nH]ccc23)cn1 [Ruxolitinib]
- Structural cardiotoxin? [2]: N
- Functional cardiotoxin? [2]: N

Structure (SMILES): NC[C@H]1O[C@H](O[C@H]2[C@H](O)[C@@H](O[C@H]3O[C@H](CO)[C@@H](O)[C@H](N)[C@H]3O)[C@H](N)C[C@@H]2N)[C@H](N)C[C@@H]1O [Tobramycin]
- Structural cardiotoxin? [2]: N
- Functional cardiotoxin? [2]: N

Structure (SMILES): CCCCNC(=O)NS(=O)(=O)c1ccc(C)cc1 [Tolbutamide]
- Structural cardiotoxin? [2]: N
- Functional cardiotoxin? [2]: N
